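Assay format: 96-well plates, 48-hour exposure. Definition used: TGI = concentration required for complete inhibition of growth.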
Experiments:
Experiment in all cases: growth of human tumour cells (NCI), 48 h
T-47D breast = system: T-47D breast
MCF7 breast = system: MCF7 breast
SK-MEL-28 melanoma = system: SK-MEL-28 melanoma
HS 578T breast = system: HS 578T breast
SK-OV-3 ovarian = system: SK-OV-3 ovarian
DU-145 prostate = system: DU-145 prostate
HCC-2998 colon = system: HCC-2998 colon
MDA-MB-435 = system: MDA-MB-435
OVCAR-4 ovarian = system: OVCAR-4 ovarian
ACHN renal = system: ACHN renal
SW-620 colon = system: SW-620 colon
U251 CNS = system: U251 CNS
NCI-H23 lung = system: NCI-H23 lung
BT-549 breast = system: BT-549 breast
SF-268 CNS = system: SF-268 CNS
EKVX NSCLC = system: EKVX NSCLC
CCRF-CEM leukemia = system: CCRF-CEM leukemia
HCT-116 colon = system: HCT-116 colon
OVCAR-5 ovarian = system: OVCAR-5 ovarian
SF-539 CNS = system: SF-539 CNS
KM12 colon = system: KM12 colon
SN12C renal = system: SN12C renal
SNB-19 CNS = system: SNB-19 CNS
RPMI-8226 leukemia = system: RPMI-8226 leukemia
MDA-MB-231 breast = system: MDA-MB-231 breast
MDA-N = system: MDA-N
CAKI-1 renal = system: CAKI-1 renal
786-0 renal = system: 786-0 renal
RXF 393 renal = system: RXF 393 renal
NCI/ADR-RES ovarian = system: NCI/ADR-RES ovarian
UO-31 renal = system: UO-31 renal
NCI-H226 lung = system: NCI-H226 lung
HOP-62 NSCLC = system: HOP-62 NSCLC
MALME-3M melanoma = system: MALME-3M melanoma
NCI-H460 lung = system: NCI-H460 lung
A549 NSCLC = system: A549 NSCLC
OVCAR-3 ovarian = system: OVCAR-3 ovarian
PC-3 prostate = system: PC-3 prostate
M14 melanoma = system: M14 melanoma
HCT-15 colon = system: HCT-15 colon
OVCAR-8 ovarian = system: OVCAR-8 ovarian
SK-MEL-2 melanoma = system: SK-MEL-2 melanoma
SNB-75 CNS = system: SNB-75 CNS
A498 renal = system: A498 renal
UACC-62 melanoma = system: UACC-62 melanoma
COLO 205 colon = system: COLO 205 colon
SF-295 CNS = system: SF-295 CNS
MOLT-4 leukemia = system: MOLT-4 leukemia
HT29 colon = system: HT29 colon
UACC-257 melanoma = system: UACC-257 melanoma
K-562 leukemia = system: K-562 leukemia

In the case of Cc1n[nH]c(=O)n1/N=C/c1cccc(Cl)c1, the TGI (T-47D breast) is reported as greater than 100 µM, the TGI (MCF7 breast) is reported as greater than 100 µM and the TGI (SK-MEL-28 melanoma) is reported as greater than 100 µM. For the same compound, the TGI (HS 578T breast) was 39.7 µM, the TGI (SK-OV-3 ovarian) was greater than 100 µM and the TGI (DU-145 prostate) was greater than 100 µM. It also gave a TGI (HCC-2998 colon) greater than 100 µM, a TGI (MDA-MB-435) greater than 100 µM and a TGI (OVCAR-4 ovarian) greater than 100 µM. The TGI (ACHN renal) was greater than 100 µM, the TGI (SW-620 colon) was greater than 100 µM and the TGI (U251 CNS) was greater than 100 µM. The TGI (NCI-H23 lung) was greater than 100 µM, the TGI (BT-549 breast) was greater than 100 µM and the TGI (SF-268 CNS) was greater than 100 µM. For the same compound, the TGI (EKVX NSCLC) was greater than 100 µM, the TGI (CCRF-CEM leukemia) was greater than 100 µM and the TGI (HCT-116 colon) was greater than 100 µM. It also gave a TGI (OVCAR-5 ovarian) greater than 100 µM, a TGI (SF-539 CNS) greater than 100 µM and a TGI (KM12 colon) greater than 100 µM. The TGI (SN12C renal) was greater than 100 µM, the TGI (SNB-19 CNS) was greater than 100 µM and the TGI (RPMI-8226 leukemia) was greater than 100 µM. It also gave a TGI (MDA-MB-231 breast) greater than 100 µM, a TGI (MDA-N) greater than 100 µM and a TGI (CAKI-1 renal) greater than 100 µM. The TGI (786-0 renal) was greater than 100 µM, the TGI (RXF 393 renal) was greater than 100 µM and the TGI (NCI/ADR-RES ovarian) was greater than 100 µM. The TGI (UO-31 renal) was greater than 100 µM, the TGI (NCI-H226 lung) was greater than 100 µM and the TGI (HOP-62 NSCLC) was greater than 100 µM. It also gave a TGI (MALME-3M melanoma) greater than 100 µM, a TGI (NCI-H460 lung) greater than 100 µM and a TGI (A549 NSCLC) greater than 100 µM. The TGI (OVCAR-3 ovarian) was greater than 100 µM, the TGI (PC-3 prostate) was greater than 100 µM and the TGI (M14 melanoma) was greater than 100 µM. The TGI (HCT-15 colon) was greater than 100 µM, the TGI (OVCAR-8 ovarian) was greater than 100 µM and the TGI (SK-MEL-2 melanoma) was greater than 100 µM. It also gave a TGI (SNB-75 CNS) greater than 100 µM, a TGI (A498 renal) greater than 100 µM and a TGI (UACC-62 melanoma) greater than 100 µM. The TGI (COLO 205 colon) was greater than 100 µM, the TGI (SF-295 CNS) was greater than 100 µM and the TGI (MOLT-4 leukemia) was greater than 100 µM. The TGI (HT29 colon) was greater than 100 µM, the TGI (UACC-257 melanoma) was greater than 100 µM and the TGI (K-562 leukemia) was greater than 100 µM.
